For test [1], the target named is Beta-1 adrenergic receptor (Cavia porcellus, UniProt B0FL73).
Test [2] concerns the target Beta-2 adrenergic receptor (Cavia porcellus, UniProt Q8K4Z4).
The target of test [3] is Beta-2 adrenergic receptor (Homo sapiens, UniProt P07550).
Test [4] deals with Beta-1 adrenergic receptor (Homo sapiens, UniProt P08588).

Where “and” joins values, the source holds several entries; their conditions need not be identical. Identical values can stand only once. Bounds are passed on as bounds.

A word on the Ki: it is a measure of affinity in units of concentration, obtained from inhibition or displacement.

Beta-2 adrenergic receptor (Cavia porcellus, UniProt Q8K4Z4), sequence (Q8K4Z4 whole entry): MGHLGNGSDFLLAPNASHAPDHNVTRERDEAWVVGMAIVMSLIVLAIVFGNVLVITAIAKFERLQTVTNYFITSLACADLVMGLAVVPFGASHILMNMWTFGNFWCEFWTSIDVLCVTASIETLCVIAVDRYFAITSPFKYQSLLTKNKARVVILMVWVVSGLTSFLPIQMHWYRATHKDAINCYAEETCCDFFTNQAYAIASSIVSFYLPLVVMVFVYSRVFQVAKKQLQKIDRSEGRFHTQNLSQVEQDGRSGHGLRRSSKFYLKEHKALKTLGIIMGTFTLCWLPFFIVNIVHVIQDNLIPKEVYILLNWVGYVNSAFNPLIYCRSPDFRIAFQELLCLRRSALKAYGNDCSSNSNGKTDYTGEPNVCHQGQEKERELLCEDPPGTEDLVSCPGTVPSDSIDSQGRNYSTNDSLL
Beta-1 adrenergic receptor (Cavia porcellus, UniProt B0FL73), sequence (B0FL73 whole entry): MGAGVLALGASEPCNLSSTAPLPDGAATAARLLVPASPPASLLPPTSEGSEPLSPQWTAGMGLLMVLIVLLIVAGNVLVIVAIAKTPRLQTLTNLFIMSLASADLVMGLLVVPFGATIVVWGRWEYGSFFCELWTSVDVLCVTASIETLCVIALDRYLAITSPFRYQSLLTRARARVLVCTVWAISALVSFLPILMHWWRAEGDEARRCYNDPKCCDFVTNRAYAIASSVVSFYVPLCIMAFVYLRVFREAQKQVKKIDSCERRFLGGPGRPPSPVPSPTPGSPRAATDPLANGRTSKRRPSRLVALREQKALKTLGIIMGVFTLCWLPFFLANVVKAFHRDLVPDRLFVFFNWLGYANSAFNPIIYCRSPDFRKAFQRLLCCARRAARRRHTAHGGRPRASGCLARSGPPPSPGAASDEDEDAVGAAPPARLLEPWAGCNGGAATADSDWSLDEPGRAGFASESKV
Beta-1 adrenergic receptor (Homo sapiens, UniProt P08588), sequence (P08588 whole entry): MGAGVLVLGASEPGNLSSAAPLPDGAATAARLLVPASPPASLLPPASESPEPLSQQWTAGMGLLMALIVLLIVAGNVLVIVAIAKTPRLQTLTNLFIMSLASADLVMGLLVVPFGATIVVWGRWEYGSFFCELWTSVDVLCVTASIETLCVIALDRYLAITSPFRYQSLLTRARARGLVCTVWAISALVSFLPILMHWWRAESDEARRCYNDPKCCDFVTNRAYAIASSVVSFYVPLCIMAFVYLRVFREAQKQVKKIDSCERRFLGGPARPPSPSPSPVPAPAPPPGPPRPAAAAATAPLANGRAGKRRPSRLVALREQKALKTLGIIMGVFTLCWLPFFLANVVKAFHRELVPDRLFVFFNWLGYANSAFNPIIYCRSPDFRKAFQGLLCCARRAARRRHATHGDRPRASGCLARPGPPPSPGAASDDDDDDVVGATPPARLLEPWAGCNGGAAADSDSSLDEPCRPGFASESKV
Beta-2 adrenergic receptor (Homo sapiens, UniProt P07550), sequence (P07550 whole entry): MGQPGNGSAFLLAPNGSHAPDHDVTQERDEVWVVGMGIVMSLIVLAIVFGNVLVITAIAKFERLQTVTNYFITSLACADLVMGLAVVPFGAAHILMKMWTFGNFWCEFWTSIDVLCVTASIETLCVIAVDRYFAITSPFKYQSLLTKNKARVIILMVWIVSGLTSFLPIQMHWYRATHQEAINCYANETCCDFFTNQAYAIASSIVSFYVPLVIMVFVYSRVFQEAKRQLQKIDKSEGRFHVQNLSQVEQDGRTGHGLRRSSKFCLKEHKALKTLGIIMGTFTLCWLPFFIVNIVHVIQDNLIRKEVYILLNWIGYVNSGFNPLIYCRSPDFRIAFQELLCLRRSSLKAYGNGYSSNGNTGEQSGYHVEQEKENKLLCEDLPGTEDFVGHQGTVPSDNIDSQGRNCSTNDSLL

In the case of `CC(C)(C)NCC(O)c1cc(O)cc(O)c1` (racemic) [Terbutaline,(+/-)], the inhibition constant Ki in test [1] is greater than 10 µM.

For the compound `COc1cc(CC2NCCc3c2cc(O)c(O)c3C(F)(F)F)cc(OC)c1OC` (stereo unspecified) [TMQ, 5-TrifluoroMe], the Ki is 1.1 µM in test [1]; 1.17 µM and 0.912 µM in test [2].

Consider `COc1cc(CC2c3cc(O)c(O)cc3CCN2Cc2ccc(Cl)c(Cl)c2)cc(OC)c1OC` (stereo unspecified) [TMQ, N-dichlorobenzyl], for which the inhibitory constant (Ki) in test [1] stood at 3.55 µM; in test [2], 1.86 µM.

In the case of `COc1cc(C[C@@H]2NCCc3cc(O)c(O)cc32)cc(OC)c1OC` [CAS_65772], the Ki was 0.11 µM in test [1]; 0.0275 µM and 0.00977 µM in test [2].

Consider `COc1cc(CC2NCCc3cc(O)c(O)cc32)cc(N)c1OC` (stereo unspecified) [TMQ, 3'-Amino], for which the Ki was 0.457 µM in test [1]; 0.141 µM in test [3]; 0.49 µM and 0.0977 µM in test [2]; 0.214 µM in test [4].

As for `COc1cc(CC2NCCc3c(F)c(O)c(O)c(F)c32)cc(OC)c1OC` (stereo unspecified) [TMQ, 5,8-Difluoro], the Ki in test [1] is 0.0347 µM; in test [3], 0.0087 µM and 0.00616 µM; in test [2], 0.0066 µM and 0.00426 µM; in test [4] it was 0.00741 µM.

For the compound `COc1cc(CC2=NCCc3cc(O)c(O)cc32)cc(OC)c1OC` [TMQ, Amidine], the Ki in test [2] is greater than 10 µM.

Turning to `COc1cc(CC2c3cc(O)c(O)cc3CCN2CCO)cc(OC)c1OC` (stereo unspecified) [TMQ, N-hydroxyethyl], the inhibitory constant (Ki) in test [1] was found to be 5.37 µM; in test [2], 2.75 µM.

As to `COc1cc(C[C@H]2NCCc3cc(O)c(O)c(F)c32)cc(OC)c1OC` [TMQ, R-(-)-8-Fluoro], the Ki came to 0.437 µM in test [3] and 0.417 µM in test [4].

Regarding `COc1cc(CC2c3cc(O)c(O)cc3CCN2C)cc(OC)c1OC` (stereo unspecified) [TMQ, N-methyl], in test [2], the inhibition constant (Ki) was determined as 0.851 µM.

Regarding `COc1cc(CC2c3cc(O)c(O)cc3CCN2Cc2cccc(Cl)c2)cc(OC)c1OC` (stereo unspecified) [TMQ, N-chloro-benzyl], the Ki in test [1] was 6.17 µM; in test [2] it was 1.26 µM.

With `COc1cc(CC2NCCc3c2cc(O)c(O)c3I)cc(OC)c1OC` (stereo unspecified) [TMQ, 5-Iodo], the inhibition constant Ki is 0.0339 µM in test [1]; 0.0102 µM in test [3]; 0.0371 µM and 0.0115 µM in test [2].

As for `COc1cc(CC2NCCc3cc(O)c(O)cc32)cc2c1OS(=O)O2` (stereo unspecified) [TMQ, Cyclic sulfite], the inhibition constant (Ki) in test [1] is greater than 10 µM; in test [2] it was 3.47 µM and 1.95 µM.

Consider `COc1c(I)cc(CC2NCCc3cc(O)c(O)cc32)cc1I` (stereo unspecified) [TMQ, 3',5'-Diiodo], for which the Ki in test [1] is 0.0105 µM; in test [3], 0.00058 µM and 0.00074 µM; in test [2] it was 0.00281 µM and 0.00097 µM.

As for `COc1cc(CC2c3cc(O)c(O)cc3CCN2Cc2ccccc2)cc(OC)c1OC` (stereo unspecified) [TMQ, N-benzyl], the affinity in test [1], expressed as Ki, was 1.1 µM. In other words, the single-digit micromolar range.

As for `CC(C)NCC(O)c1ccc(O)c(O)c1` (stereo not drawn) [Isoproterenol,(+)], in test [2], the Ki was 0.324 µM and 0.107 µM.

In the case of `COc1cc(CC2NCCc3cc(O)c(O)cc32)cc(I)c1OC` (stereo unspecified) [TMQ, 3'-Iodo], the Ki in test [1] was 0.01 µM; in test [3], 0.00269 µM and 0.00169 µM; in test [2], 0.00109 µM and 0.00234 µM; in test [4], 0.0126 µM.

Consider `COc1cc(CC2NCCc3cc(O)c(O)cc32)cc(OC)c1OC` (stereo unspecified) [1-(3,4,5-Trimethoxy-benzyl)-1,2,3,4-tetrahydro-isoquinoline-6,7-diol], for which the inhibition constant Ki in test [2] was 0.105 µM and 0.0229 µM.

Consider `COc1cc(CC2c3cc(O)c(O)cc3CCN2Cc2cccc([N+](=O)[O-])c2)cc(OC)c1OC` (stereo unspecified) [TMQ, N-nitro-benzyl], for which the Ki in test [2] was 1.62 µM and 1.48 µM.

As to `COc1cc(C[C@@H]2NCCc3cc(O)c(O)c(F)c32)cc(OC)c1OC` [TMQ, S-(+)-8-Fluoro], the Ki in test [3] worked out at 0.0102 µM; in test [4], 0.0676 µM.

Consider `COc1cc(CC2NCCc3cc(O)c(O)cc32)cc([N+](=O)[O-])c1OC` (stereo unspecified) [TMQ, 3'-Nitro], for which the Ki in test [1] is 0.0316 µM; in test [3], 0.0468 µM; in test [2] it was 0.011 µM and 0.00275 µM; in test [4], 0.0148 µM.

Consider `COc1cc(CC2c3cc(O)c(O)cc3CCN2Cc2cccc(N)c2)cc(OC)c1OC` (stereo unspecified) [TMQ, N-amino-benzyl], for which the inhibition constant (Ki) in test [3] was 0.933 µM; in test [2], 3.72 µM and 1.32 µM.

With `CC(C)NCC(O)COc1cccc2[nH]ccc12` (stereo unspecified) [LB-46], the Ki was 0.00724 µM in test [1]; 0.00263 µM and 0.00114 µM in test [2].

Regarding `COc1cc(CC2NCCc3cc(O)c(O)c(F)c32)cc(OC)c1OC` (racemic) [NSC_128658], the Ki stood at 0.0087 µM in test [3] and 0.0371 µM in test [4].

As to `COc1cc(CC2NCCc3cc(O)c(O)c(I)c32)cc(OC)c1OC` (stereo unspecified) [TMQ, 8-Iodo], the Ki was 0.631 µM in test [1]; 0.759 µM and 0.437 µM in test [3]; 0.363 µM and 0.38 µM in test [2].

Regarding `COc1cc(C[C@H]2NCCc3cc(O)c(O)cc32)cc(OC)c1OC` [TMQ, R-(+)], the Ki in test [1] was greater than 10 µM; in test [2] it was > 10 µM and 9.33 µM.

Values taken from BindingDB's records for PubMed 7915318 (Ohio State University, 1994).
